The source made the active and inactive calls. No cut-off for these calls is given here.

For orientation: Ki means the equilibrium dissociation constant of an inhibitor or competing ligand from its target.

Data set [1] can be described thus: Antiproliferative activity against human TG10 cells at 34.2 ug/ml by WST-1 assay. It is filed as functional.
A further data set relates to TG1. Kind of data set: Induction of Erk phosphorylation in human TG1 cells at 100 uM after 30 mins by Western blot analysis. It is filed as cell-based.
Data set [2] in a line: Antiproliferative activity against human NSC-24 cells at 34.2 ug/ml to 100 uM by WST-1 assay. It is filed as cell-based. For orientation: Tetrazolium dyes change colour on reduction, which living cells bring about.
The target of data set [3] is Indoleamine 2,3-dioxygenase 1 (Homo sapiens, UniProt P14902). Nature of the data set: Competitive inhibition of human indoleamine 2,3-dioxygenase assessed as conversion of N-formylkynurenine to kynurenine after 2 hrs by spectrophotometrical analysis.
A further data set concerns NSC-24. Nature of the data set: Inhibition of Erk phosphorylation in human NSC-24 cells at 100 uM after 30 mins by Western blot analysis. It is filed as cell-based. A general note: Immunoblotting shows a protein as a band on a membrane.
The nature of data set [4]: Antiproliferative activity against human TG1 cells at 34.2 ug/ml by WST-1 assay. It is filed as functional.

Sequence of Indoleamine 2,3-dioxygenase 1 (P14902 whole entry): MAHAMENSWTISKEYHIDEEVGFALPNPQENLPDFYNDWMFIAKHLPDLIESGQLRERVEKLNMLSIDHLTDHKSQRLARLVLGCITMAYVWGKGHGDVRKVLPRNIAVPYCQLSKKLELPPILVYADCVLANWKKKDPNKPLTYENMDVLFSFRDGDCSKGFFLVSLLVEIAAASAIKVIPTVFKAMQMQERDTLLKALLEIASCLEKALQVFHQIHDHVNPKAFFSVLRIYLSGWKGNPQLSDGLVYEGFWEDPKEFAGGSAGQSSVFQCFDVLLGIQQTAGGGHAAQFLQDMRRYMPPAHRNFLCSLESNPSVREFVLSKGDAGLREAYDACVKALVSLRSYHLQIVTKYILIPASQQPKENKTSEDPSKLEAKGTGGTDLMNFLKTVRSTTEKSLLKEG

Take `COc1c2c(c3ccc(=O)oc3c1/C=C/C(C)(C)O)OC(C)(C)C=C2` [AVICENNOL]: the Activity in data set [1] is given as 40%; in data set [2] it was “Non-toxic”; in data set [4], 35%. Moreover, in the data set with TG1, the outcome was Active. Further, the Ki in data set [3] was 635 µM. Further, in the data set with NSC-24, the inhibition entry is “Active”.

The values above are taken from ChEMBL document CHEMBL2010739, “Antiproliferative activity of trans-avicennol from Zanthoxylum chiloperone var. angustifolium against human cancer stem cells” (J Nat Prod, 2012).
